Data as given in patent US10376557B2, “Peptide fragments for inducing synthesis of extracellular matrix proteins” (HELIX BIOMEDIX, INC., priority 2006, dated 2019).
Ends that are not written are not given here.

Test system: Human dermal fibroblasts
Test: SIRCOL collagen assay: soluble collagen released by dermal fibroblasts incubated with peptides
Assay type: cell-based
Conditions: for Collagen (μg) / Collagen: * = may not be significant, detection limit 2.5 μg; for Increase in collagen release at 48 h v. 24 h / Significant release of collagen at 24 h and 48 h / Decrease in collagen release at 48 h v. 24 h: check mark = yes; for Significant release of collagen at 24 h and 48 h: 25 μg/mL considered significant
Method: Several sequences identified in Examples 1 and 2 were synthesized using standard peptide chemistry and assayed for the stimulation of collagen from dermal fibroblasts. The synthesized peptides were amidated at the C-terminus, which rendered the tetrapeptides less susceptible to protease degradation and increased their solubility compared to the free acid forms. Human dermal fibroblasts were incubated in 96-well plates at 37° C. and 5% CO2 for 24 and 48 hours in 150 μL complete cell culture media (Cascade Biologics, Portland, Oreg.; Cat. No. M-106-500), supplemented with Low Serum Growth Supplement (Cascade Biologics, Portland, Oreg.; Cat. No. […] Each well was seeded with 10,000 cells. Following the incubation, 100-μL medium samples were recovered from each well and assayed for collagen production
The assays were performed by Tebu-bio Laboratories (France) using the SIRCOL™ Collagen Assay Kit (Biocolor Assays, UK) following the manufacturer's protocol. The SIRCOL™ Collagen Assay is a quantitative dye-binding method designed for the analysis of soluble collagens released into culture medium by mammalian cells during in vitro culture. The collagen of the tested samples binds to the anionic SIRCOL™ dye. The collagen-dye complexes precipitate out of solution and are pelleted by centrifugation. The recovered collagen-dye pellet was dissolved in an alkaline solution prior to absorbance measurements. Duplicate measurements were taken at the 24 and 48 hour times from two separate samples. The four measurements for each sample were averaged. The absorbance of reagent blanks, collagen standards, and samples were measured at 560 nm. The reagent blank absorbance was subtracted from the absorbance from each sample at 24 and 48 hours.
Two separate data sets were used to generate two collagen standard calibration curves. The first calibration curve was generated for purposes of calculating the quantity of collagen in samples H6 (combination of SEQ ID NOs:1-4), […] (SEQ ID NOs:1-8, respectively) and H15 (combination of SEQ ID NOs:5-8). The second calibration curve was generated for calculating the quantity of collagen in samples H16 (SEQ ID NO:9), H21-23 (SEQ ID NOs:10-12, respectively), H25-26 (SEQ ID NOs:13-14, respectively), or H29-30 (SEQ ID NOs:15-16, respectively), H32 (SEQ ID NO:17), H33 (combination of SEQ ID NOs:9-12), H34 (combination of SEQ ID NOs:11-14), H35 (combination of SEQ ID NOs:13-16), H36 (combination of SEQ ID NOs:1, 6, 5, 8), H37 (SEQ ID NO: 17) and H38 (SEQ ID NO:8) from the absorbance measurements was created by plotting the Abs560nm of the known collagen standards versus the respective concentrations of the collagen standards (in micrograms) each time a series of assays were performed. With respect to each data set, the same calibration curve was used for samples taken at the 24 and 48 hour times (Tables 2A and 2B). Accordingly, different standard curves were prepared immediately prior to performing each series of assays.
A linear regression was performed from plotting the Abs560nm values versus concentrations of the respective collagen standards using MICROSOFT EXCEL™. […] As the results were identical, only the 24-hour time period was used for the second series calibration curves. The formula of the line obtained on assay date 1 and assay date 2 of the second series of samples was y=0.0178x and y=0.0162x, respectively. The peptide LL-37 (SEQ ID NO:18) was used as a positive control as it has been widely reported to have an impact upon wound healing in man (Heilborn et al., The Cathelicidin Anti-Microbial Peptide LL-37 Is Involved In The Re-Epithelialization Of Human Skin Wounds And Is Lacking In Chronic Ulcer Epithelium, J. Invest. Dermato. 120:379-89 (2003). The assay detection limit defined by the manufacturer is 2.5 μg. […]

[1] = 24 hours, peptide 50 μg/mL, 100 μL medium sample
[2] = 48 hours, peptide 50 μg/mL, 100 μL medium sample
[3] = peptide 0.3 μg/mL (per Table 5)
[4] = 24 hours, peptide 0.3 μg/mL, second series
[5] = 48 hours, peptide 0.3 μg/mL, second series
[6] = 24 hours, peptide 50 μg/mL, second series
[7] = 48 hours, peptide 50 μg/mL, second series

Substance	Released collagen (μg/mL) 24 h (peptide 50 μg/mL (per Table 5))	Average (A560 nm) (24 hours, peptide 50 μg/mL)	Average minus blank (A560 nm) (24 hours, peptide 50 μg/mL)	Collagen (μg) [1]	Collagen produced (μg/mL) 24 hrs ([Peptide] 50 μg/mL)	Released collagen (μg/mL) 48 h (peptide 50 μg/mL (per Table 5))	Average (A560 nm) (48 hours, peptide 50 μg/mL)	Average minus blank (A560 nm) (48 hours, peptide 50 μg/mL)	Collagen [2]	Collagen produced (μg/mL) 48 hrs ([Peptide] 50 μg/mL)	Collagen (μg) [2]	further results
GAGP (Synthetic Peptide H12)	2 µg/mL	0.08	0.00	0.2* μg	2 µg/mL	37 µg/mL	0.17	0.05	3.7 µg	37 µg/mL		collagen production at 48 hours (in words) (48 hours): good results; Increase in collagen release at 48 h v. 24 h (peptide 50 μg/mL): ✓
GEKG (Synthetic Peptide H14) [H14 = tested at 50 μg/mL, H38 = same peptide tested at 0.3 μg/mL]	30 µg/mL	0.12	0.04		30 µg/mL	26 µg/mL	0.15	0.03	2.6 µg	26 µg/mL		time for which collagen production was substantially maintained: at least 48 hours; collagen stimulation at the lower concentration (in words) (0.3 μg/mL versus 50 μg/mL): not diminished; collagen production compared to KTTKS (24 and 48 hours): stimulated more collagen production than the KTTKS; Released collagen (μg/mL) 24 h [3]: 29 µg/mL; amount of collagen induced compared to LL37 (24 hours): about the same amount of collagen as LL37; Average (A560 nm) [4]: 0.13; Average minus blank (A560 nm) [4]: 0.05; Collagen [4]: 2.9 µg; Collagen [1]: 3.0 µg; Collagen produced (μg/mL) 24 hrs ([Peptide] 0.3 μg/mL): 29 µg/mL; Released collagen (μg/mL) 48 h [3]: 28 µg/mL; Average (A560 nm) [5]: 0.11; Average minus blank (A560 nm) [5]: 0.05; Collagen [5]: 2.8 µg; Collagen produced (μg/mL) 48 hrs ([Peptide] 0.3 μg/mL): 28 µg/mL; Significant release of collagen at 24 h and 48 h (peptide 0.3 μg/mL): ✓; Significant release of collagen at 24 h and 48 h (peptide 50 μg/mL): ✓; maximal stimulating concentration (collagen production): ≤ 0.3 µg/mL
GFPG (Synthetic Peptide H8)	15 µg/mL	0.10	0.02	1.5* μg	15 µg/mL	9 µg/mL	0.13	0.01		9 µg/mL	0.9* μg	
GPPG (Synthetic Peptide H13)	18 µg/mL	0.10	0.02	1.8* μg	18 µg/mL	2 µg/mL	0.12	0.00		2 µg/mL	0.2* μg	
GSPG (Synthetic Peptide H9)	35 µg/mL	0.13	0.05		35 µg/mL	0 µg/mL	0.09	0.00		0 µg/mL	0.0* μg	Collagen [1]: 3.5 µg; Decrease in collagen release at 48 h v. 24 h (peptide 50 μg/mL): ✓
KTTKS [H32, reference compound]						12 µg/mL				12 µg/mL		Released collagen (μg/mL) 24 h [3]: 11 µg/mL; Average (A560 nm) [4]: 0.10; Average minus blank (A560 nm) [4]: 0.02; Collagen (μg) [4]: 1.1* μg; Average (A560 nm) [6]: 0.07; Average minus blank (A560 nm) [6]: −0.01; Collagen (μg) [6]: −0.5* μg; Collagen produced (μg/mL) 24 hrs ([Peptide] 0.3 μg/mL): 11 µg/mL; Released collagen (μg/mL) 48 h [3]: 22 µg/mL; Average (A560 nm) [5]: 0.10; Average minus blank (A560 nm) [5]: 0.04; Collagen (μg) [5]: 2.2* μg; Average (A560 nm) [7]: 0.08; Average minus blank (A560 nm) [7]: 0.02; Collagen (μg) [7]: 1.2* μg; Collagen produced (μg/mL) 48 hrs ([Peptide] 0.3 μg/mL): 22 µg/mL; Increase in collagen release at 48 h v. 24 h (peptide 0.3 μg/mL): ✓
PEGP (PEGP-NH2) [H7]	0 µg/mL	0.08	0.00	0.0* μg	0 µg/mL	54 µg/mL	0.19	0.07	5.4 µg	54 µg/mL		Increase in collagen release at 48 h v. 24 h (peptide 50 μg/mL): ✓
PEKP (PEKP-NH2) [H16]	31 µg/mL				31 µg/mL	3 µg/mL				3 µg/mL		Average (A560 nm) [6]: 0.14; Average minus blank (A560 nm) [6]: 0.06; Collagen [6]: 3.1 µg; Average (A560 nm) [7]: 0.06; Average minus blank (A560 nm) [7]: 0.00; Collagen (μg) [7]: 0.3* μg; Decrease in collagen release at 48 h v. 24 h (peptide 50 μg/mL): ✓
